Source: PMC6058520 (Drug Delivery, 2018)
Several values for one entry are separate records, joined by “and”; a condition that tells them apart may be missing. Equal values may be shown once. Square brackets hold non-standard residues; d marks the D form. Peptide text beside a SMILES is read from it.

Columns and labels:
[1] = Pharmacokinetics of insulin/TCTP-PTD analog mixtures in normal rats (plasma insulin, ELISA); assay type: in vivo, rat; conditions: for BA (relative bioavailability compared to s.c.) / AUC / Cmax / Tmax: mean ± SEM (n = 5–7); for Cmax / Tmax: ELISA
Procedure: Rats were fasted for 16 h with access to water, anesthetized by intraperitoneal injection of sodium pentobarbital (60 mg/kg), and placed in the supine position. […] Blood samples (100 µL) were collected from the rat tail 5, 10, 20, 30, 60, 90, 120 and 180 min after dosing and centrifuged at 5000 × g for 25 min to obtain plasma. […] Relative BA was calculated using the following formula: BA(%)=(AUCnasal×Doses.c.)/(AUCs.c×Dosenasal)×100%

[2] = D-form compared with L-TCTP-PTD 13; ref Bae et al., 2016; cited from earlier work
Description: Therefore, the D-TCTP-PTD analogs could negatively affect insulin delivery through the nasal mucosa.

[3] = test system: BEAS-2B human bronchial epithelial cells; assay: Cellular uptake of FITC-labeled peptides, flow cytometry; assay type: cell-based; conditions: FITC-labeled peptides 5 µM in BEGM, BEAS-2B cells, 30 min, 37 °C, p < .05
Procedure: Cellular uptake assays were carried out to assess the membrane permeability of the new peptides, as previously described (Bae et al., [2016]). Briefly, BEAS-2B human bronchial epithelial cells (American Type Culture Collection [ATCC], Manassas, VA) were maintained in bronchial epithelial growth medium (BEGM; Lonza, Walkersville, MD) and 2 × 10^5 cells/well were seeded in 12-well plates. After 24 h, the cells were washed twice with 1 mL phosphate-buffered saline (PBS) and incubated with FITC-labeled peptides (5 µM) in BEGM for 30 min at 37 °C. The cells were then washed three times with ice-cold PBS to remove cell surface-bound peptides. After trypsinization, the cells were collected by centrifugation (1000 × g for 5 min), washed and finally resuspended in 1 mL ice-cold PBS. The internalized FITC was measured using fluorescence-activated cell sorting on a FACSCalibur flow cytometer (Becton Dickinson, San Jose, CA, USA) at emission and excitation wavelengths of 510 and 530 nm, respectively. Assays were performed in triplicate and repeated at least three times. Flow cytometric analyses were accomplished using WinMDI v.2.8 software.

[4] = ref Bae & Lee, 2013; cited from earlier work
Description: We previously reported that the human translationally controlled tumor protein (TCTP) contains a PTD at its N-terminus (TCTP-PTD) with the amino acid sequence […] al., [2011a]). To improve the penetration of peptides through the cell membrane, we designed variant peptides modified from TCTP-PTD. […] Therefore, the D-TCTP-PTD analogs could negatively affect insulin delivery through the nasal mucosa.

[5] = test system: rats with alloxan-induced diabetes; assay: Pharmacodynamics (blood glucose) of insulin/TCTP-PTD analog mixtures in diabetic rats; assay type: in vivo, rat; conditions: area above blood glucose curve, mean ± SEM (n = 6–8)
Procedure: After 5 days, rats with fasting blood glucose levels in the range of 230-300 mg/dL were selected for the pharmacodynamic studies. […] Then, they were anesthetized by intraperitoneal injections of sodium pentobarbital (60 mg/kg). […] Blood samples were collected from the tip of the rat tail, and blood glucose levels were directly measured using an Accu-Chek glucose meter (Roche Diagnostics, Seoul, Korea). […] The area above the blood glucose curve (AAC) was calculated according to the trapezoid rule. The F% was calculated using the following equation: F%=([…])×100%

[6] = insulin 1 IU/kg intranasal plus 0.25 mM PTD
[7] = plasma insulin AUC0-180 min, insulin 1 IU/kg intranasal plus 0.25 mM PTD
[8] = plasma insulin, insulin 1 IU/kg intranasal plus 0.25 mM PTD
[9] = insulin 1 IU/kg intranasal plus 0.1 mM PTD
[10] = plasma insulin AUC0-180 min, insulin 1 IU/kg intranasal plus 0.1 mM PTD
[11] = plasma insulin, insulin 1 IU/kg intranasal plus 0.1 mM PTD

## CC[C@@H](C)[C@@H](NC(=O)[C@@H](CC(C)C)NC(=O)[C@@H](C)NC(=O)[C@@H](CCCNC(=N)N)NC(=O)[C@@H](Cc1ccccc1)NC(=O)[C@H](NC(=O)[C@H](NC(=O)[C@@H](CCSC)NC(C)=O)[C@H](C)CC)[C@H](C)CC)C(=O)N[C@H](CO)C(=O)N[C@H](Cc1c[nH]cn1)C(=O)N[C@H](CCCCN)C(=O)N[C@H](CCCCN)C(N)=O [D-TCTP-PTD 13] (Ac-[dM][dI][dI][dF][dR][dA][dL][dI][dS][dH][dK][dK]-NH2)
[1]; [6]
  BA (relative bioavailability compared to s.c.): 6.8% and 6.8 ± 2.0%
[1]; [7]
  AUC: 645.5 ± 191.2 μU/mL·min
[1]; [8]
  Cmax: 13.8 ± 4.2 μU/mL
  Tmax: 14.0 ± 2.4 min
[2]
  antigen (ovalbumin) carrier potency through nasal mucosa (in words): more potent antigen carrier

## CC[C@H](C)[C@H](NC(=O)[C@H](CC(C)C)NC(=O)[C@H](CC(C)C)NC(=O)[C@H](CCCNC(=N)N)NC(=O)[C@H](Cc1ccccc1)NC(=O)[C@@H](NC(=O)[C@@H](NC(=O)[C@H](CCSC)NC(C)=O)[C@@H](C)CC)[C@@H](C)CC)C(=O)N[C@@H](CO)C(=O)N[C@@H](Cc1c[nH]cn1)C(=O)N[C@@H](CCCCN)C(=O)N[C@@H](CCCCN)C(N)=O [L-TCTP-PTD 13M1] (Ac-MIIFRLLISHKK-NH2)
[3]
  cellular uptake capacity compared with L-TCTP-PTD 13 (in words): lower
[1]; [9]
  BA (relative bioavailability compared to s.c.): 20.9 ± 1.4%
[1]; [6]
  BA (relative bioavailability compared to s.c.): 10.1 ± 2.4%
[1]; [10]
  AUC: 1966.3 ± 130.5 μU/mL·min
[1]; [7]
  AUC: 951.7 ± 225.9 μU/mL·min
[1]; [11]
  Cmax: 47.1 ± 3.1 μU/mL
  Tmax: 10.0 ± 0.0 min
[1]; [8]
  Cmax: 15.0 ± 3.3 μU/mL
  Tmax: 13.3 ± 2.1 min

## CC[C@H](C)[C@H](NC(=O)[C@H](CC(C)C)NC(=O)[C@H](C)NC(=O)[C@H](CCCNC(=N)N)NC(=O)[C@H](Cc1ccccc1)NC(=O)[C@@H](NC(=O)[C@@H](NC(=O)[C@H](CCSC)NC(C)=O)[C@@H](C)CC)[C@@H](C)CC)C(=O)N[C@@H](CO)C(=O)N[C@@H](Cc1c[nH]cn1)C(=O)N[C@@H](CCCCN)C(=O)N[C@@H](CCCCN)C(N)=O [L-TCTP-PTD 13] (Ac-MIIFRALISHKK-NH2)
[1]; [9]
  BA (relative bioavailability compared to s.c.): 9.0 ± 1.4%
[1]; [6]
  BA (relative bioavailability compared to s.c.): 22.1% and 22.1 ± 2.5%
[1]; [10]
  AUC: 847.1 ± 132.9 μU/mL·min
[1]; [7]
  AUC: 2081.7 ± 238.6 μU/mL·min
[1]; [11]
  Cmax: 26.4 ± 7.8 μU/mL
  Tmax: 12.0 ± 2.0 min
[1]; [8]
  Cmax: 53.4 ± 6.7 μU/mL
  Tmax: 10.0 ± 0.0 min
[4]
  nasal absorption of insulin compared to insulin alone (in words): enhanced nasal absorption

## Insulin: Human recombinant insulin (27.5 IU/mg), Sigma-Aldrich
[1]; AUC0-180 min, insulin s.c., 0.25 IU/kg
  AUC: 2356.4 ± 106.2 μU/mL·min
[1]; AUC0-180 min, trapezoid rule, insulin alone, intranasal, 5 IU/kg
  AUC: 180.5 ± 37.6 μU/mL·min
[1]; insulin 1 IU/kg intranasal, alone
  plasma insulin after intranasal insulin alone (in words): scarcely detectable
[1]; insulin s.c., 0.25 IU/kg
  Cmax: 40.9 ± 0.9 μU/mL
[5]; insulin alone, intranasal, 2 IU/kg
  AAC0–240 min: 721.0 ± 478.2 % glucose/min
[5]; insulin s.c., 1 IU/kg
  AAC0–240 min: 11354.3 ± 507.8 % glucose/min
